Read-outs that look alike come from different tables or passages of the source. Blank lines part the entries; values can stand above or below the compound they belong to.
How the values were obtained:
[1] = in vivo, 75 mg
[2] = test system: advanced biliary tract cancer; experiment: ABC-04 phase Ib trial: objective response (RECIST v1.1), PFS, deaths; assay type: in vivo, patients; conditions: 75 mg bd + CisGem
Procedure: Patients were assessed prior to starting treatment and at regular intervals throughout treatment. […] All AEs occurring between the date of signing consent and 30 days after the last dose of any trial treatment were recorded. AEs were graded according to CTCAE v 4.03. Blood biochemistry and a full blood count with differential were carried out at the same time points as the physical examinations. […] In addition, prior to registration, an electrocardiogram and echocardiogram, and an ophthalmological examination were required. Disease status was assessed by computed tomography (CT) scan, with or without a liver magnetic resonance (MR) scan, prior to registration, after cycles 4 and 8 and then subsequently every 12 weeks until disease progression. Patients with measurable disease at baseline were assessed for objective response according to RECIST v1.1 [10]. For patients with non-measurable disease, objective response was not assessed and progressive disease was documented by the appearance of new lesions or by symptomatic deterioration.
Tumour responses were assessed according to RECIST version 1.1. The best response across all time points has been reported. For PFS and OS, the time to progression or death was measured from the date of registration. PFS and OS were estimated for the population by the Kaplan-Meier method.

[3] = clinical; conditions: human, in vivo, 75 mg
[4] = ABC-04 phase Ib trial: dose limiting toxicity, adverse events, compliance; assay type: in vivo, patients
Procedure: Four dose levels were included in the protocol for potential evaluation; 75 mg bd, 50 mg bd, 75 mg once daily (od) and 50 mg od. The first dose level evaluated was 75 mg bd. Patients were recruited in cohorts of three. The number of patients experiencing a DLT during the first cycle of treatment in each cohort was used to decide the dose level at which to recruit the next cohort. If no patients experienced a DLT, then that dose level was the recommended dose. If one patient experienced a DLT, the cohort was to be expanded to six patients. If > 2 patients experienced DLT, then subsequent patients were to be entered into the next lower dose level. […]
Patients were assessed prior to starting treatment and at regular intervals throughout treatment. […] All AEs occurring between the date of signing consent and 30 days after the last dose of any trial treatment were recorded. […] Disease status was assessed by computed tomography (CT) scan, with or without a liver magnetic resonance (MR) scan, prior to registration, after cycles 4 and 8 and then subsequently every 12 weeks until disease progression. Patients with measurable disease at baseline were assessed for objective response according to RECIST v1.1 [10]. For patients with non-measurable disease, objective response was not assessed and progressive disease was documented by the appearance of new lesions or by symptomatic deterioration. […]

[5] = test system: ABC; conditions: monotherapy 100 mg bd, older formulation; 29 patients with ABC; cited from earlier work
[6] = RECIST v1.1, listed as selumetinib

AUC(0-t) ([1]; human): 347.26 ng·h/mL
Cmax ([1]; human): 77.16 ng/mL
Tmax ([1]; human): 2.00 h
decrease of AUC(0-t) in the presence of CisGem ([1]; human): 40%
decrease of AUC(0-∞) in the presence of CisGem ([1]; human): 40%
decrease of Cmax in the presence of CisGem ([1]; human): 40%
AUC(0-∞) [1]: 452.88 ng·h/mL
SMILES: O=C(NOCCO)c1cc2nc[nH]c2c(F)c1Nc1ccc(Br)cc1Cl [N-desmethyl selumetinib]

SMILES: Cn1cnc2c(F)c(Nc3ccc(Br)cc3Cl)c(C(=O)NOCCO)cc21 [Selumetinib]
Cmax ([1]; human): 1331.33 ng/mL
Median time from documented best objective response until progression or death [2]: 5.9 months
median time from documented best objective response until progression or death, best response SD [2]: 3.1 months
median PFS ([2]; IQR 5.2 to 13.7): 6.4 months
PFS rate at 6 months ([2]; Kaplan-Meier): 67%
PFS rate at 12 months ([2]; Kaplan-Meier): 33%
Best objective response: Complete response ([2]; RECIST v1.1): 1 N
Best objective response: Partial response ([2]; RECIST v1.1): 1 N
Best objective response: Stable disease ([2]; RECIST v1.1): 6 N
Best objective response: Partial response [2, 6]: 3 N
Best objective response: Stable disease [2, 6]: 5 N
Best objective response: Not evaluable ([2]; RECIST v1.1, total 13): 5 N
patients who had died ([2]; at the time of the final analysis): 7 patients
AUC(0-inf) [3]: 5650 ng·h/mL
Tmax [3]: 1.55 h
deaths considered related to protocol treatment ([4]; 75 mg bd + CisGem): None
recommended dose of selumetinib when combined with CisGem ([4]; dose de-escalation scheme, patients with ABC): 75 mg bd
response rate [5]: 12%
